According to ChEMBL document CHEMBL1201862, “PubChem BioAssay data set” (2004):
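How tested: cells in 96-well plates exposed to compound for 48 hours at five concentrations. GI50: concentration for 50% inhibition of growth.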 Active and inactive are the calls of the source. Rule as the data show it: active = GI50 up to about 1.1 µM and inactive = higher.

Legend:
Test in all cases: inhibition of tumour cell growth, NCI panel, 48 h
786-0 = system: 786-0
ACHN = system: ACHN
CCRF-CEM = system: CCRF-CEM
DU-145 = system: DU-145
HOP-62 = system: HOP-62
HT-29 = system: HT-29
Hs-578T = system: Hs-578T
MDA-N = system: MDA-N
Malme-3M = system: Malme-3M
NCI-H460 = system: NCI-H460
NCI/ADR-RES = system: NCI/ADR-RES
OVCAR-4 = system: OVCAR-4
OVCAR-5 = system: OVCAR-5
OVCAR-8 = system: OVCAR-8
RXF 393 = system: RXF 393
SF-295 = system: SF-295
SK-MEL-28 = system: SK-MEL-28
SW-620 = system: SW-620
NCI-H522 = system: NCI-H522

Measured: GI50

O=C1NCCCc2nonc21
inactive: 786-0 > 100 µM | ACHN > 100 µM | CCRF-CEM > 100 µM | DU-145 > 100 µM | HOP-62 > 100 µM | HT-29 > 100 µM | Hs-578T > 100 µM | MDA-N > 100 µM | Malme-3M > 100 µM | NCI-H460 > 100 µM | NCI/ADR-RES > 100 µM | OVCAR-4 > 100 µM | OVCAR-5 > 100 µM | OVCAR-8 > 100 µM | RXF 393 > 100 µM | SF-295 > 100 µM | SK-MEL-28 > 100 µM | SW-620 > 100 µM

COc1ccc(/C=C2\CCC(C)c3c2nc(N)c(C#N)c3-c2ccc(OC)c(OC)c2)cc1OC (stereo unspecified)
inactive: 786-0 8.89 µM | ACHN 15.7 µM | CCRF-CEM 3.89 µM | DU-145 20.7 µM | HOP-62 2.05 µM | HT-29 6.25 µM | Hs-578T 9.16 µM | MDA-N 33.4 µM | Malme-3M 16.5 µM | NCI/ADR-RES 6.73 µM | OVCAR-5 36.9 µM | OVCAR-8 9.82 µM | RXF 393 4.01 µM | SF-295 6 µM | SK-MEL-28 45.8 µM | SW-620 > 100 µM

O=C1CCCCC1=C(I)I
inactive: 786-0 16.5 µM | ACHN 17.6 µM | CCRF-CEM 19.1 µM | DU-145 19.7 µM | HOP-62 28.7 µM | Hs-578T 63 µM | MDA-N 16.9 µM | Malme-3M 14.3 µM | NCI-H460 21.4 µM | OVCAR-4 12.1 µM | OVCAR-5 17.5 µM | OVCAR-8 33.9 µM | RXF 393 16.2 µM | SF-295 24.8 µM | SK-MEL-28 17 µM | SW-620 17.4 µM

Cc1nnc2sc(Cc3cnc(N)s3)nn12
inactive: 786-0 > 100 µM | ACHN > 100 µM | CCRF-CEM > 100 µM | DU-145 > 100 µM | HOP-62 > 100 µM | HT-29 > 100 µM | Hs-578T > 100 µM | Malme-3M > 100 µM | NCI-H460 > 100 µM | NCI-H522 > 100 µM | NCI/ADR-RES > 100 µM | OVCAR-4 > 100 µM | OVCAR-5 > 100 µM | OVCAR-8 > 100 µM | RXF 393 > 100 µM | SK-MEL-28 > 100 µM | SW-620 > 100 µM

O=C(Nc1ccc2ccccc2c1)Nn1cnnc1
inactive: 786-0 > 100 µM | ACHN > 100 µM | CCRF-CEM > 100 µM | DU-145 > 100 µM | HOP-62 > 100 µM | HT-29 > 100 µM | Hs-578T > 100 µM | MDA-N > 100 µM | Malme-3M > 100 µM | NCI-H460 > 100 µM | NCI-H522 > 100 µM | OVCAR-4 > 100 µM | OVCAR-5 > 100 µM | OVCAR-8 > 100 µM | SF-295 > 100 µM | SK-MEL-28 > 100 µM | SW-620 > 100 µM

Cc1nn(C(=O)Cc2ccccc2)c2c1C(c1ccccc1)SC(=N)N2 (stereo unspecified)
inactive: 786-0 > 100 µM | ACHN > 100 µM | CCRF-CEM > 100 µM | DU-145 > 100 µM | HOP-62 > 100 µM | HT-29 > 100 µM | Hs-578T > 100 µM | MDA-N > 100 µM | Malme-3M > 100 µM | NCI-H460 > 100 µM | NCI-H522 > 100 µM | OVCAR-8 > 100 µM | SF-295 > 100 µM | SK-MEL-28 > 100 µM | SW-620 > 100 µM

COC(=O)/C(=N\NC(=S)NN)C(C(=O)OC)C(=O)C(=O)Nc1cccc(C(F)(F)F)c1 (stereo unspecified)
inactive: 786-0 > 100 µM | ACHN > 100 µM | CCRF-CEM > 100 µM | HOP-62 > 100 µM | HT-29 > 100 µM | Hs-578T > 100 µM | MDA-N > 100 µM | Malme-3M > 100 µM | NCI-H460 > 100 µM | NCI-H522 > 100 µM | NCI/ADR-RES > 100 µM | OVCAR-4 > 100 µM | OVCAR-5 79.1 µM | OVCAR-8 > 100 µM | RXF 393 > 100 µM | SF-295 > 100 µM | SK-MEL-28 49.3 µM | SW-620 > 100 µM

N#Cc1c2c([nH]c(=O)c1C#N)CCCC2
inactive: 786-0 > 100 µM | ACHN > 100 µM | CCRF-CEM > 100 µM | DU-145 > 100 µM | HT-29 > 100 µM | Hs-578T > 100 µM | MDA-N > 100 µM | Malme-3M > 100 µM | NCI-H460 > 100 µM | NCI/ADR-RES > 100 µM | OVCAR-5 > 100 µM | OVCAR-8 > 100 µM | RXF 393 > 100 µM | SF-295 > 100 µM | SK-MEL-28 > 100 µM | SW-620 > 100 µM

CCOC(=O)c1cc(Br)c(-c2cc(C)co2)[nH]1
inactive: 786-0 > 100 µM | CCRF-CEM > 100 µM | DU-145 > 100 µM | HOP-62 > 100 µM | HT-29 > 100 µM | Hs-578T 84.5 µM | MDA-N 36.4 µM | Malme-3M > 100 µM | NCI-H460 > 100 µM | NCI/ADR-RES > 100 µM | OVCAR-4 > 100 µM | OVCAR-5 > 100 µM | OVCAR-8 > 100 µM | RXF 393 > 100 µM | SF-295 > 100 µM | SK-MEL-28 > 100 µM | SW-620 > 100 µM

O=C1c2cccc3cc([N+](=O)[O-])cc(c23)C(=O)N1Nc1ccc([N+](=O)[O-])cc1[N+](=O)[O-]
active: ACHN 0.557 µM
inactive: 786-0 13.6 µM | CCRF-CEM 1.85 µM | DU-145 40.8 µM | HOP-62 14 µM | HT-29 12.9 µM | Hs-578T > 31.6 µM | Malme-3M 20.1 µM | NCI-H460 7.41 µM | NCI-H522 11.6 µM | NCI/ADR-RES 19.1 µM | OVCAR-4 19.3 µM | OVCAR-5 > 70.5 µM | OVCAR-8 13 µM | RXF 393 23.3 µM | SF-295 27 µM | SK-MEL-28 11.9 µM | SW-620 10 µM

CCCNC(=O)Cn1c2c(c3ccccc31)CCCC2
inactive: 786-0 > 100 µM | ACHN 34.9 µM | CCRF-CEM > 100 µM | HOP-62 78 µM | HT-29 > 100 µM | Hs-578T 23.1 µM | MDA-N 68.7 µM | Malme-3M > 100 µM | NCI-H460 58.2 µM | NCI/ADR-RES 50.9 µM | OVCAR-4 45.8 µM | OVCAR-5 > 100 µM | OVCAR-8 > 100 µM | SF-295 38.5 µM | SK-MEL-28 88.9 µM | SW-620 55.6 µM

COc1cc2c(/C=C3/C(=O)Nc4ccc(Cl)cc43)c(Cl)[nH]c2cc1C
inactive: DU-145 1.36 µM | NCI-H522 2.16 µM | OVCAR-5 3.27 µM | OVCAR-8 1.73 µM
active: 786-0 0.731 µM | ACHN 0.587 µM | CCRF-CEM 0.332 µM | HOP-62 0.439 µM | HT-29 0.544 µM | Hs-578T 0.327 µM | Malme-3M 0.82 µM | NCI-H460 0.524 µM | NCI/ADR-RES 0.662 µM | OVCAR-4 0.818 µM | RXF 393 0.375 µM | SF-295 0.356 µM | SK-MEL-28 0.26 µM | SW-620 0.596 µM

[N-]=[N+]=Nc1cc(=O)[nH]c2ccccc12
inactive: 786-0 > 100 µM | ACHN > 100 µM | CCRF-CEM > 100 µM | HOP-62 > 100 µM | HT-29 > 100 µM | Hs-578T 44.3 µM | MDA-N > 100 µM | Malme-3M 94.6 µM | NCI-H522 > 100 µM | NCI/ADR-RES > 100 µM | OVCAR-4 > 100 µM | OVCAR-5 > 100 µM | OVCAR-8 > 100 µM | RXF 393 > 100 µM | SF-295 > 100 µM | SK-MEL-28 > 100 µM | SW-620 > 100 µM

Cc1cc(C)c2c(c1)C(=O)/C(=C/c1ccccc1C(=O)O)C2
inactive: 786-0 > 100 µM | ACHN > 100 µM | CCRF-CEM 44.2 µM | DU-145 > 100 µM | HOP-62 67.5 µM | HT-29 59 µM | Hs-578T > 100 µM | MDA-N 67.5 µM | Malme-3M > 100 µM | NCI-H460 58.5 µM | NCI-H522 20.6 µM | OVCAR-4 45.1 µM | OVCAR-8 68.4 µM | RXF 393 38.7 µM | SF-295 52.2 µM | SK-MEL-28 > 100 µM | SW-620 84.3 µM

CCOC(=O)CCCn1nnc(C(=O)OCC)c1C(=O)OCC
inactive: 786-0 > 100 µM | ACHN > 100 µM | CCRF-CEM > 100 µM | DU-145 > 100 µM | HOP-62 > 100 µM | HT-29 > 100 µM | Hs-578T > 100 µM | MDA-N > 100 µM | Malme-3M > 100 µM | NCI-H460 > 100 µM | NCI/ADR-RES > 100 µM | OVCAR-4 > 100 µM | OVCAR-8 > 100 µM | RXF 393 > 100 µM | SF-295 > 100 µM | SK-MEL-28 > 100 µM | SW-620 > 100 µM

Cc1cc(N=C2C=C(Br)C(=O)C(Br)=C2)cc(CN(CC(=O)O)CC(=O)O)c1O
inactive: 786-0 > 100 µM | ACHN > 100 µM | CCRF-CEM > 100 µM | DU-145 > 100 µM | HOP-62 > 100 µM | HT-29 > 100 µM | Hs-578T > 100 µM | Malme-3M > 100 µM | NCI-H460 > 100 µM | NCI-H522 > 100 µM | NCI/ADR-RES > 100 µM | OVCAR-4 > 100 µM | OVCAR-5 > 100 µM | OVCAR-8 > 100 µM | RXF 393 > 100 µM | SF-295 > 100 µM | SK-MEL-28 > 100 µM | SW-620 > 100 µM
